Assay results reported in ChEMBL document CHEMBL3286148, “Aminoazabenzimidazoles, a novel class of orally active antimalarial agents” (J Med Chem, 2014).
Calls of active or inactive are those of the source. The rule behind the calls is not given here.

Key:
[1] = Clearance in rat hepatocytes assessed per 1E6 cells; assay type: ADME, cell-based, Hepatocyte; conditions: read-out: CLH
Plasmodium falciparum [2] = assay: Antiplasmodial activity against Plasmodium falciparum Dd2 harboring CRT mutant; assay type: functional, organism-based
Plasmodium falciparum [3] = assay: microbe, parasite or virus in culture; conditions: W2, 72 h
Description: Antiplasmodial activity against Plasmodium falciparum W2 after 72 hrs by SYBR I method

Plasmodium falciparum [4] = assay: Antiplasmodial activity against chloroquine and pyrimethamine-sensitive Plasmodium falciparum 3D7A assessed as parasite reduction ratio at 10 times IC50 after 48 hrs; assay type: functional, organism-based
[5] = Clearance in human liver microsomes; assay type: ADME; conditions: read-out: CLH
Plasmodium falciparum [6] = assay: Antiplasmodial activity against Plasmodium falciparum Dd2 harboring CYTb-Qi mutant; assay type: functional, organism-based
Plasmodium falciparum [7] = assay: Antiplasmodial activity against Plasmodium falciparum Dd2 harboring HSP90 mutant; assay type: functional, organism-based
[8] = target: Voltage-gated inwardly rectifying potassium channel KCNH2 (Homo sapiens, UniProt Q12809); assay: Inhibition of human ERG
Plasmodium falciparum [9] = assay: microbe, parasite or virus in culture; conditions: NF54, 72 h
Plasmodium falciparum [10] = assay: microbe, parasite or virus in culture; conditions: SB1, 72 h
Description: Antiplasmodial activity against Plasmodium falciparum SB1 after 72 hrs by SYBR I method

Plasmodium falciparum [11] = assay: microbe, parasite or virus in culture; conditions: 7G8, 72 h
Description: Antiplasmodial activity against Plasmodium falciparum 7G8 after 72 hrs by SYBR I method

Plasmodium falciparum [12] = assay: Antiplasmodial activity against Plasmodium falciparum Dd2 harboring DHODH mutant; assay type: functional, organism-based
Plasmodium falciparum [13] = assay: microbe, parasite or virus in culture; conditions: K1, 72 h
Plasmodium falciparum [14] = assay: microbe, parasite or virus in culture; conditions: Dd2, 72 h
Description: Antiplasmodial activity against Plasmodium falciparum Dd2 after 72 hrs by SYBR I method

[15] = Clearance in mouse liver microsomes; assay type: ADME; conditions: read-out: CLH
[16] = Selectivity index, ratio of IC50 for human A549 cells to IC50 for Plasmodium falciparum; assay type: toxicity, cell-based; conditions: read-out: Ratio IC50
Plasmodium falciparum [17] = assay: Antiplasmodial activity against Plasmodium falciparum Dd2; assay type: functional, organism-based

Sequence of Voltage-gated inwardly rectifying potassium channel KCNH2 (Q12809 whole entry): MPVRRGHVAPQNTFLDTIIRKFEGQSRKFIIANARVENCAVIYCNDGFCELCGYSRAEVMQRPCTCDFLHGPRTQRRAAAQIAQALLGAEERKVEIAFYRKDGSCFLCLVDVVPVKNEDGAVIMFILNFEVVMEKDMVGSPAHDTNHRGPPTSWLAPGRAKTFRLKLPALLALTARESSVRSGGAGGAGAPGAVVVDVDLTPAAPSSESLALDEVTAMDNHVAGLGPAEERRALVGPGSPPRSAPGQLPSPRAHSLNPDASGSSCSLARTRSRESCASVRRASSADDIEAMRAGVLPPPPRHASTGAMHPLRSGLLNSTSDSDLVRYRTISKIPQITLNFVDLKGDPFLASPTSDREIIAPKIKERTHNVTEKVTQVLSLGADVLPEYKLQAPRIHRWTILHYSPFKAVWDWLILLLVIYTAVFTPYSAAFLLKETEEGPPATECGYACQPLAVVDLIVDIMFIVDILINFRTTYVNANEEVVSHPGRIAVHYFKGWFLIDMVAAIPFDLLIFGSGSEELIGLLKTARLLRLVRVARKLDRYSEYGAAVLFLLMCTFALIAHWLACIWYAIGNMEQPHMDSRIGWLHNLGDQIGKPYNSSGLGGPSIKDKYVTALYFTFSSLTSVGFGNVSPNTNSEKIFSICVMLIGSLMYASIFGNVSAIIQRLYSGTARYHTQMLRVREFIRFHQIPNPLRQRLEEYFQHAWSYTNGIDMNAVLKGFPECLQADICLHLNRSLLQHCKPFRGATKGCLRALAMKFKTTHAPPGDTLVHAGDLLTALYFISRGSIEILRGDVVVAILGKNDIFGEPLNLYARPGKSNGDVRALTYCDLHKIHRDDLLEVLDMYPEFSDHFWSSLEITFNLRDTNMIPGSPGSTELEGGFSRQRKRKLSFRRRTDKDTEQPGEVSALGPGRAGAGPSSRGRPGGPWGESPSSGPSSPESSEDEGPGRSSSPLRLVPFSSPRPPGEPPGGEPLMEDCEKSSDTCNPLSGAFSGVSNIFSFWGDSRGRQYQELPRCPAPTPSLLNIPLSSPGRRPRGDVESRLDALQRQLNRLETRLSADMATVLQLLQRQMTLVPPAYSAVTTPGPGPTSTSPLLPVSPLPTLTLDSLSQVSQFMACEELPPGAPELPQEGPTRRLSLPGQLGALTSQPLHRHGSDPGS

**Q.** Which hepatocyte CLint [1] does the source give for `Nc1nc2ccc(OCC(F)(F)F)nc2n1CC(O)c1ccc(C(F)(F)F)cc1Cl` (racemic) here?
**A.** Its hepatocyte CLint is 36 µL/min/1e6 cells.

**Q.** What about the IC50 (Plasmodium falciparum [2]) of the same molecule?
**A.** The IC50 was 16.4 nM.

**Q.** And the IC50 (Plasmodium falciparum [3])?
**A.** Its IC50 is 62 nM.

**Q.** What about the Activity (Plasmodium falciparum [4]) of the same molecule?
**A.** The Activity was “Active”.

**Q.** What about the microsomal CLint [5] of the same molecule?
**A.** Its microsomal CLint is 45 µL/min/mg.

**Q.** What about the IC50 (Plasmodium falciparum [6]) of the same molecule?
**A.** The IC50 was 11.8 nM.

**Q.** And the IC50 (Plasmodium falciparum [7])?
**A.** The IC50 was 34.1 nM.

**Q.** What about the IC50 [8] of the same molecule?
**A.** The IC50 was over 33.3 µM.

**Q.** What about the IC50 (Plasmodium falciparum [9]) of the same molecule?
**A.** Its IC50 is 43 nM.

**Q.** What about the IC50 (Plasmodium falciparum [10]) of the same molecule?
**A.** Its IC50 is 178 nM.

**Q.** And the IC50 (Plasmodium falciparum [11])?
**A.** The IC50 was 12 nM.

**Q.** What about the IC50 (Plasmodium falciparum [12]) of the same molecule?
**A.** Its IC50 is 19.7 nM.

**Q.** What about the IC50 (Plasmodium falciparum [13]) of the same molecule?
**A.** The IC50 was 10 nM.

**Q.** What about the IC50 (Plasmodium falciparum [14]) of the same molecule?
**A.** The IC50 was 135 nM.

**Q.** And the microsomal CLint [15]?
**A.** The microsomal CLint was 21 µL/min/mg.

**Q.** What about the selectivity ratio [16] of the same molecule?
**A.** Its selectivity ratio is 232.

**Q.** What about the IC50 (Plasmodium falciparum [17]) of the same molecule?
**A.** The IC50 was 24.6 nM.
